Results from a melting point compilation (Tetko et al.; mined from patent text by program, amines drawn as free bases though some values may be those of a salt).

melting point | Compound
157 to 159 °C | CCCNC(=O)c1ccc(-c2ccc3nnn(Cc4ccc5ncccc5c4)c3n2)cc1F
253 to 254 °C | Nc1ccc(-c2n[nH]c3c2Cc2ccccc2-3)cc1
100 to 104 °C | CCCCCCCCCCCCCCCCCCOc1cc(OCCCOc2cccc(N)c2)cc(C(=O)N(CC(=O)O)CC(=O)O)c1
223 to 225 °C | CCOc1cc(-c2nnc3c4ccccc4c(OCc4ncnn4C)nn23)no1
200 to 201 °C | CCc1ccc2c(c1)c(-c1ccccc1Cl)c(C(=O)O)c(=O)n2C
170 to 171 °C | O=C(CCSC(=O)c1ccccc1)N[C@@H](Cc1c[nH]cn1)C(=O)O
157 to 158 °C | COc1cc(C(=O)O)ccc1Cc1cn(C)c2ccc(NC(=O)OC3CCCC3)cc12
> 300 °C | Oc1ccc(CN2CC=CCC2)cc1O
178 to 179 °C | O=C(C=Cc1ccc(CN(CCO)C2CCCCC2)cc1)Nc1ccc(-c2ccc(Cl)cc2)cc1
89 to 90 °C | CC(=O)Oc1c(C)c(C)c2c(c1C)CC(CCI)O2 (racemic)
121 to 122 °C | O=C(CC=C(Cl)C1(Cl)OC1=O)c1ccccc1 (centres undefined)
243 to 245 °C | O=S1(=O)NC(C2CCCCC2)Nc2ccc(S(=O)(=O)c3ccccc3)cc21 (centres undefined)
162 to 164 °C | COc1cc(C(CC(=O)O)N2Cc3ccccc3C2=O)cc(OC)c1OC (centres undefined)
213 to 214 °C | CN(c1cccc2c(F)c(C3=NCC(CC(=O)O)S3)[nH]c12)S(=O)(=O)c1cccs1 (centres undefined)
84 to 86 °C | CCCCCCCCCCCCCCCCCNC(=O)O[C@@H]1CCCO[C@H]1CO (relative stereo)
74 to 75 °C | CC(C)(C)CC(=O)Oc1ccc(-c2nn(C3CCCC3)c3c(F)cccc23)cc1
55.5 to 57 °C | CC1=C2OCOC2CC(C)(C)C1=O (centres undefined)
141 to 143 °C | Nc1ccc(NC(=O)C(=O)N2CCC(Cc3ccc(F)cc3)CC2)cc1
298 °C | CC1(C)OC(=C(C#N)C#N)C(C#N)=C1c1ccc(-c2cn(-c3ccccc3)nn2)cc1
157 to 159 °C | CCOC(=O)N1c2cc(OC)c(OC)cc2[C@H](NC(=O)Cc2cc(C(F)(F)F)cc(C(F)(F)F)c2)C[C@@H]1C (relative stereo)
116 to 122 °C | COC(=O)c1ccc(-c2ccc(OC)c3c2CC(C)(C)O3)cc1
138 °C | CCOC(=O)C1(C(=O)OCC)CCC2(c3cc(OC)c(OC)cc3CCN2C(=O)CC)C(C2c3cc(OC)c(OC)cc3CCN2CC)C1 (centres undefined)
225 to 245 °C | COc1c(CC(=O)O)c2c(c3c1OC(C)(C)C3)C(c1ccccc1)=NC(C)(C)C2
120 to 122 °C | COC(=O)C1=C(C#N)NC(C)=C(C(=O)OC(C)C)C1c1cccc([N+](=O)[O-])c1 (centres undefined)
120 °C | ON=C(c1cc(F)cc(F)c1)c1cccc2nc(N[C@@H]3CCc4ccccc43)ccc12
109 °C | Cc1cc(C)nc(NC(=O)Cc2cc(Br)sc2Br)c1

Second part, the compound before the results:

Compound | melting point
CC1(C)CC(=O)c2cc(O)ccc2O1 | 158 °C
COC(=O)c1ccc(S(C)(=O)=O)c(C2=NOC(C)(OC)C2)c1Cl (centres undefined) | 100 to 105 °C
CCOP(=O)(CCN1CCC(N(CCCN)S(=O)(=O)c2ccc(Nc3nccc(Nc4ccc(F)cc4)n3)cc2)CC1)OCC | 125 to 130 °C
Nc1c(-c2nc(-c3ccco3)n[nH]2)cnn1CCc1ccccc1 | 175 to 176 °C
Cc1cc(Cl)cc2c1OCCCC2=O | 56 to 58 °C
COC(=O)c1c(C)noc1C(=O)NC(C)C | 64 to 66 °C
Cc1ncsc1CCOS(N)(=O)=O | 80 to 83 °C
Cc1[nH]n(C2CCCCC2)c2nc(-c3ccncc3)nc(=O)c1-2 | 292 to 293 °C
CC(=O)c1cc(C(N)=O)c(=O)[nH]c1C | > 320 °C
O=c1c2ccccc2ncn1CCN1CC=C(c2c[nH]c3ccccc23)CC1 | 132 °C
CCCCCCOc1ccc(-c2ccc(OCCCCCCBr)cc2)cc1 | 103 to 105 °C
Clc1ccc(CN2CCN=C2Cc2ccccc2)c(Cl)c1 | 185 to 189 °C
CN(C)CCNc1ccc(-c2n[nH]c3ncccc23)cc1 | 165 to 167 °C
COC(=O)CC1CC(CCc2c(-c3ccc(F)cc3)c(-c3ccccc3)c(C(=O)Nc3ccc(C(=O)OC)cn3)n2C(C)C)OC(C)(C)O1 (centres undefined) | 77 to 84 °C
Cc1c(N=C2NCCO2)cccc1NS(C)(=O)=O | 124 to 140 °C
COC(=O)c1ccc2cc(O)ccc2c1 | 196 °C
Cc1ccc(S(=O)(=O)N2CC2c2ccccc2)cc1 (centres undefined) | 92 to 94 °C
Cc1cc(OS(=O)(=O)c2ccccc2)cc2c(C3CCN(C)CC3)c[nH]c12 | 118 °C
Cc1c(NC(=O)CC(C)(C)C)cc2c(c1C)OC(C)(C)C2Cc1ccccc1 (centres undefined) | 186 to 187 °C
COc1c2c(c(OC)c(OC)c1OC)CCC(CCOc1ccc(-c3ccccc3)cc1)CC2 | 115 to 120 °C
COc1ccc(/C=C/C(=O)C2C(=O)CC(c3ccc(OC)cc3)C([N+](=O)[O-])C2c2ccc(OC)cc2)cc1 (centres undefined) | 200 to 202 °C
CCCCc1oc2ccccc2c1C(=O)NCc1ccc2c(-c3ccccc3)c(OCC#N)ccc2c1 | 135 to 138 °C

Compound | melting point
CC(C)c1n[nH]c(=O)n1N | 172 °C
Cc1cccc(-c2ccccc2C(=O)NCCc2ccccc2)c1N1C(=O)c2ccccc2C1=O | 156 °C
CCCCCCO[C@H](C)C(=O)Oc1ccc(C(=O)O)cc1 | 67 to 72 °C
CCOCc1cc(N2C(=O)C3=C(CCCC3)C2=O)c(F)cc1Cl | 89 to 91 °C
CNc1ccccc1CS(=O)c1nccn1-c1ccccn1 (centres undefined) | 135 to 137 °C
Cc1cc(C)c(N2C(=O)C(C)Cc3c(Cl)nc(C)nc32)c(C)c1 (centres undefined) | 136 to 139 °C
O=C1CCCCCCCCCCCCCCCCCCCCCC(O)C(=O)OCCCC1 (centres undefined) | 67 to 68 °C
COc1cccc2c1nc(C(F)F)n2-c1nc(N2CCOCC2)c2ncn(-c3cccnc3)c2n1 | 229 to 231 °C
Cn1c(-c2ccc(Cl)cc2)cc2ncccc2c1=O | 139 to 140 °C
Cc1cc(CNC(=O)c2cc(-c3ccc(C(C)(C)C)cc3)nn2CCN2CCOCC2)ccc1OC(C)(C)C(=O)O | 140 °C
CSc1nccc(-c2nc(=O)c3ccccc3s2)n1 | 224 °C
CNc1nc(SC)ncc1C#N | 189 to 190 °C
O=c1[nH]c(-c2ccc(CCN3CCN(c4cccc(C(F)(F)F)c4)CC3)cc2)cs1 | 285 to 287 °C
CN1C(=O)C2(CCNCC2)c2ccccc21 | 146 to 151 °C
CCOC(=O)c1c(Cn2cnnc2)nc2sc(C)c(C)c2c1-c1ccc(OC)c(OC)c1 | 187 to 188 °C
CCN(CC)c1nc(N)nc(-c2cc(Cl)ccc2Cl)n1 | 137 to 138 °C
Nc1nc(Cl)nc(NC2CC2)n1 | 188 to 189 °C
COc1cccc(OC)c1C(=O)NCC(=O)N1c2ccccc2N(Cc2ccccc2)C(=O)[C@H]2CCC[C@H]21 (relative stereo) | 182 to 184 °C
c1ccc(COc2nn3c(-c4cc(-c5cccs5)on4)nnc3c3ccccc23)nc1 | 213 to 215 °C
CN(C)C(=O)C(C#N)=C(OC(=O)c1ccc(Cl)cc1[N+](=O)[O-])c1ccc(Cl)cc1[N+](=O)[O-] | 137 to 146 °C
CCOC(=O)c1nc2scc(CN=[N+]=[N-])c2c(=O)[nH]1 | 192 °C
